# Test results taken from patent US20070225312A1, “TERGURIDE / PROTERGURIDE FOR THE TREATMENT OF CHRONIC PAIN” (ERGONEX PHARMA GMBH, priority 2006, published 2007).
# Legend:
# [1] = tested on: patient with herniated disc, chronic pain; test: Herniated disc chronic pain case, co-therapy with oxycodone
# [2] = tested on: patient suffering from fibromyalgia; test: Application of terguride in the case of fibromyalgia (single patient); assay type: in vivo, human
# Method: A patient suffering from fibromyalgia was treated with terguride. The patient complained about chronic pain in the extremities as well as about stomach pains and continuous exhaustion and tiredness. The discomforts had persisted for several months. No pretreatment had been realized prior to the treatment with terguride. The patient was treated with a daily dose of 3 mg of terguride which was administered in the morning and in the evening in single doses of 1.5 mg. The treatment was realized gradually. […] The treatment was realized over a period of 25 weeks and the condition of the patient was examined weekly.
# [3] = tested on: patient suffering from mastalgia and stomach pains due to premenstrual syndrome; test: Application of terguride in the case of mastalgia/premenstrual syndrome (single patient); assay type: in vivo, human
# Method: A patient suffering from mastalgia and stomach pains due to premenstrual syndrome was treated with terguride. […] The therapy started in the middle of the cycle. Twice a day, a tablet containing 0.5 mg terguride was administered to the patient over a period of 3 months. The pain severity was observed by means of a visual analogue scale. During the therapy, the pains in the chest and stomach area decreased and the patient was able to renounce on the administration of additional pain medication.
# [4] = tested on: patient suffering from migraine; test: Application of terguride for the prophylaxis of migraine (single patient, diary); assay type: in vivo, human; details: daily dose 2 mg
# Method: A patient, suffering from migraine on average four times a month, was treated with terguride. The patient was treated with a daily dose of 2 mg terguride which was administered in the morning and in the evening in single doses of 1 mg. The treatment was realized gradually. […] The patient was treated over a period of 24 weeks. The frequency, duration and severity of the migraine attacks were recorded by means of a diary. Within 4 weeks following the start of the treatment, a reduction of 40% of the frequency of migraine attacks could be shown, as well as a reduction of the attack duration from cumulative 12 days before the therapy to 8 days under terguride. The consumption of pain medication under therapy with terguride was reduced by 46%. […] The patient reported an improvement of […] general condition.
# [5] = tested on: patient with diabetic neuropathy; test: Diabetic neuropathy case (numerical rating scale); assay type: in vivo, human
# Method: About 15 months ago, a diabetic neuropathy was clinically diagnosed in a patient who has been suffering from Type 2 Diabetes for 10 years. The patient was treated with 3×50 mg amitryptiline/day. At the time of the examination, the patient complained about pain conditions associated with burning sensations, shooting or stabbing pains and unpleasant formication, mainly in the feet and with increasing intensity during the night. On the numerical rating scale from 0=no pain to 10=maximum pain intensity, the patient reported mean pain values of 8-9 on average.
# Under therapy with terguride (0.5 mg b.i.d.) the pain conditions and the general condition of the patient improved quickly (average pain value of 2-3 on the rating scale).
# [6] = tested on: patient with postherpetic neuralgia; test: Postherpetic neuralgia case; assay type: in vivo, human; details: for pains under prior treatment: amitriptyline 3x50 mg/d, subsequently gabapentin 1500 mg daily, considerable deterioration within 10 days
# From the text: A patient of normal weight complained about a severe burning sensation and pains in the dermal area of the chest.
# [7] = tested on: tumor patient with bone pains from bone metastases; test: Tumor associated pain case; assay type: in vivo, human; details: 0.5 mg bid
# Method: A tumor patient suffering from a pancreatic carcinoma complained about bone pains resulting from the development of bone metastases. The patient was treated with ibandronate. Additionally, the treatment was realized with ibuprofen, acetaminophen and desipramine. […] After the start of the therapy with terguride (0.5 mg bid) the patient's pain conditions were reduced and the well-being improved continuously.
# [8] = tested on: patient with migrainous headaches; test: Migraine prophylaxis case; assay type: in vivo, human
# Method: The patient suffered from migrainous headaches with an average of 4-5 attacks per month, lasting on average between 3 and 8 hours. For acute pain treatment during an attack, a dosage of 50 mg of sumatriptan was administered orally. For the purpose of migraine prophylaxis, the patient was treated with topiramate in a dosage of 200 mg per day. […] Under administration of terguride (2×0.25 mg per day), the number of pain attacks decreased considerably to only one pain attack within 6 weeks with low pain intensity; also, the well-being of the patient improved within 2 weeks after the start of the therapy.
# [9] = tested on: patient suffering from fibromyalgia; test: Application of proterguride in the case of fibromyalgia (single patient); assay type: in vivo, human; details: daily dose 0.5 mg
# Method: A patient suffering from fibromyalgia was treated with proterguride.
# The patient complained about stomach problems, stomach pains, pains in the chest as well as about swollen breasts and continuous exhaustion and tiredness. The discomforts had persisted for approx. one year. No pretreatment had been realized prior to the treatment with proterguride.
# The patient was treated with a daily dose of 0.5 mg of proterguride which was administered in the morning and in the evening. The treatment was realized gradually.
# The treatment was realized over a period of 33 weeks and the condition of the patient was examined weekly. After just 12 weeks, the condition had improved, particularly regarding the pains in the chest.
structure (smiles),measurement,setting,value
"COc1ccc2c3c1O[C@H]1C(=O)CC[C@@]4(O)[C@@H](C2)N(C)CC[C@]314 [oxycodone, reference compound]",pain intensity,"[1]; oxycodone alone, 2x10 mg increased to 2x40 mg per day",considerably reduced
same,constipation complaints,"[1]; oxycodone alone, longer treatment, required dose reduction to 2x20 mg/day",the more complaints occurred due to constipation
CCN(CC)C(=O)N[C@H]1C[C@@H]2c3cccc4[nH]cc(c34)C[C@H]2N(C)C1 [terguride],"condition, in particular pains in the extremities and stomach pains (visual analog scale)","[2]; daily dose 3 mg (2 x 1.5 mg), after 10 weeks",visibly improved
same,chronic conditions of tiredness and exhaustion,"[2]; daily dose 3 mg, after 17 weeks",nearly impossible to detect
same,general condition and joy of life,"[3]; 0.5 mg twice a day, 3 months",considerably improved
same,pains in the chest and stomach area (visual analogue scale),"[3]; 0.5 mg twice a day, 3 months",decreased
same,side effects,"[3]; 0.5 mg twice a day, 3 months",No side effects were observed
same,symptoms during the following months under therapy,[3]; continued therapy,remained symptom-free
same,side effects,[4]; 24 weeks,No side effects
same,attack duration (cumulative),"[4]; under terguride, versus 12 days before the therapy",8 days
same,reduction of consumption of pain medication,[4]; under therapy,46%
same,reduction of the frequency of migraine attacks,[4]; within 4 weeks following start of treatment,40%
same,side effects,[5]; 0.5 mg b.i.d.,No side effects
same,loss of efficacy under continuous treatment,"[5]; 0.5 mg b.i.d., continuous treatment",No signs of an loss of efficacy
same,average pain value on numerical rating scale (0=no pain to 10=maximum pain intensity),[5]; under terguride 0.5 mg b.i.d.,2-3
same,side effects,[6]; 0.5 mg t.i.d.,No side effects were observed
same,pain on gradual dose reduction (treatment-free interval),"[6]; after 3 months, daily dose gradually reduced",the pain increased quickly
same,pain presentation,[6]; terguride 0.5 mg t.i.d.,improved in a fast and continuous manner
same,pain conditions,[7],reduced
same,side effects,[7],No side effects were observed
same,side effects,[8]; terguride 2x0.25 mg per day,No side effects were observed
same,time to improvement of well-being after start of therapy,[8]; terguride 2x0.25 mg per day,≤ 2 weeks
same,number of pain attacks within 6 weeks,"[8]; terguride 2x0.25 mg per day, before: 4-5 attacks per month, low pain intensity",one
same,migraine presentation after discontinuation (treatment-free interval),[8]; terguride discontinued,the migraine presentation returned
same,efficacy under chronic therapy,[1]; chronic therapy,remained efficient
same,pain,[1]; co-therapy terguride 2x0.5 mg/day with oxycodone 2x20 mg/day,almost completely pain-free
"CN(C)CCC=C1c2ccccc2CCc2ccccc21 [amitriptyline, reference compound]",mean pain values on numerical rating scale (0=no pain to 10=maximum pain intensity),"[5]; at examination, patient treated with 3x50 mg/day, before terguride",8-9
same,pains under prior treatment,[6],only to a short-term improvement
"NCC1(CC(=O)O)CCCCC1 [gabapentin, reference compound]",pains under prior treatment,[6],only to a short-term improvement
CCCN1C[C@@H](NC(=O)N(CC)CC)C[C@@H]2c3cccc4[nH]cc(c34)C[C@H]21 [proterguride],"condition, particularly pains in the chest",[9]; after 12 weeks,improved
same,swelling of breasts,[9]; after 12 weeks,reduction of the swelling
same,chronic tiredness and exhaustion and stomach pains,[9]; after 20 weeks,largely disappeared
same,overall condition of the patient,[9]; after 30 weeks,in the same condition as before the onset of the disease
"CC1(C)O[C@@H]2[C@@H](CO[C@@]3(COS(N)(=O)=O)OC(C)(C)O[C@@H]23)O1 [topiramate, reference compound]",migraine activity,[8]; topiramate 200 mg per day,No reduction of the migraine activity
same,adverse effects leading to discontinuation,"[8]; topiramate 200 mg per day, after 3 months",nausea and weight loss
